Eight molecules from patent US11766434B2, “Pyrimidinone derivatives as CDC7 inhibitors” (Cancer Research Technology Limited, priority 2016, dated 2023) can be followed below.

SMILES strings stand for the structures.

One experiment has as its target Cdc7/ASK (Homo sapiens, UniProt O00311). As to the kind of experiment: Cdc7 biochemical assay Method 1: 384 well ELISA, MCM2 whole protein substrate, Phospho MCM2 (S53) antibody. Also on record: purchased. The conditions noted are these: ATP 2 μM, 90 minutes, read-out: Biochemical method 1 (pIC50) (converted). In short, it runs like this: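 Commercial Cdc7/ASK phosphorylates plate-bound MCM2 with 2 μM ATP in Tris pH 8.5/MgCl2/DTT, 4% DMSO, 90 min at room temperature. Phospho-MCM2 (S53) detected by antibody ELISA with AP/PNPP absorbance. Inhibition normalised to DMSO and no-enzyme controls; IC50 from curve fit.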

A further experiment concerns the target Cdc7/Dbf4 (Homo sapiens, UniProt O00311). As to the kind of experiment: Cdc7 biochemical assay Method 2: Cdc7/Dbf4 Enzyme TR-FRET Assay measuring pS40MCM2. The following applies: pS40 MCM2 peptide, 1 μM ATP, 25° C., 120 minutes, read-out: Biochemical Method 2 (pIC50) (converted). As for the experimental part:
This protocol describes a method for assaying a compounds' ability to inhibit Cdc7 activity by measuring pS40MCM2 levels in a Cdc7/Dbf4 Enzyme TR-FRET Assay.
2.5 nM Cdc7/Dbf4 was incubated with 100 nM of biotin-labelled peptide 35-TDALTS(pS)PGRDLP in the presence of 1 μM ATP at 25° C. for 120 minutes. The phosphorylation of the peptide was detected using TR-FRET. Anti-Mcm2 (pS40) antibody, Terbium anti-rabbit secondary antibody and Streptavidin-Alexa Fluor488 form the detection system.
Background: Time-resolved FRET reads energy transfer from a long-lived donor to a nearby acceptor.

Sequence of Cdc7/ASK (O00311 whole entry): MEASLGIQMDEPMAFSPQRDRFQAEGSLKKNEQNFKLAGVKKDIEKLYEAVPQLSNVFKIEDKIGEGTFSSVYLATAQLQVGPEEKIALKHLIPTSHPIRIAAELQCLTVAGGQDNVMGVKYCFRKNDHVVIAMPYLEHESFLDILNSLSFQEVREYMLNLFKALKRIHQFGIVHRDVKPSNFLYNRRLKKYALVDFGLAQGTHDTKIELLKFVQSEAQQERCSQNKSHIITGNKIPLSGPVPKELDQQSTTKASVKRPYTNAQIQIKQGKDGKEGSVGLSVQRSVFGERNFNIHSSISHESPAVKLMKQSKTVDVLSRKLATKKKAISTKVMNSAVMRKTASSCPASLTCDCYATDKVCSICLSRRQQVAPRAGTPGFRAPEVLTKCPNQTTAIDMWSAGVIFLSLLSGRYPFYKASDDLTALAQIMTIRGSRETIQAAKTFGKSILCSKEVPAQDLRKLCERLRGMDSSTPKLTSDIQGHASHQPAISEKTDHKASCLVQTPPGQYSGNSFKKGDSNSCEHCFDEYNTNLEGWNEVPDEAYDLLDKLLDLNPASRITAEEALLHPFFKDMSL
Sequence of Cdc7/ASK (Q9UBU7 whole entry partner): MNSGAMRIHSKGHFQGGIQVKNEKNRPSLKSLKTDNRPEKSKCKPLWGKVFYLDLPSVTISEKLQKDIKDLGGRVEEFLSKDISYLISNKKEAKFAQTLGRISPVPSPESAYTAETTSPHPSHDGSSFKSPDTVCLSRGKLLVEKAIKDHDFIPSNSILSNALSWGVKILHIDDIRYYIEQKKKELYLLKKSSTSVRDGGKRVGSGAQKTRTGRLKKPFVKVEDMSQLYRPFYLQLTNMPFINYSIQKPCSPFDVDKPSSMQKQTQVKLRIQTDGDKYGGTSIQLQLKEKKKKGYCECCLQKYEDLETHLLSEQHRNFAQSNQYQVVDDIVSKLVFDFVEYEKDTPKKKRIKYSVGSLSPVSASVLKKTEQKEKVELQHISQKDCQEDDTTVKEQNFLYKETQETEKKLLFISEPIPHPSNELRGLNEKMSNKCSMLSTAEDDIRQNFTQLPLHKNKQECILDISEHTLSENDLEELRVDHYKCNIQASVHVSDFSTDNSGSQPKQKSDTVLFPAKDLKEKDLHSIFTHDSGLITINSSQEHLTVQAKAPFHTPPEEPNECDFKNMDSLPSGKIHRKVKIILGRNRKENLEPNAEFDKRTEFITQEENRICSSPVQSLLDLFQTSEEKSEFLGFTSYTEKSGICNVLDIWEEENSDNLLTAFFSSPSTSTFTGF
Sequence of Cdc7/Dbf4 (O00311 whole entry): as the sequence (O00311 whole entry) above
Sequence of Cdc7/Dbf4 (Q9UBU7 whole entry partner): as the sequence (Q9UBU7 whole entry partner) above

In the case of `O=c1[nH]c(-c2scnc2Cl)nc(C2CCOCC2)c1Cl` [Compound 4, 5-chloro-2-(4-chlorothiazol-5-yl)-4-tetrahydropyran-4-yl-1H-pyrimidin-6-one], on Cdc7/ASK, the IC50 is 1.62 nM. For `Cc1ncsc1-c1nc(C2CCOCC2)c(Cl)c(=O)[nH]1` [Compound 6, 5-chloro-2-(4-methylthiazol-5-yl)-4-tetrahydropyran-4-yl-1H-pyrimidin-6-one], the IC50 at Cdc7/Dbf4 was 1.95 nM; at Cdc7/ASK it was 3.8 nM.

As to `O=c1[nH]c(-c2scnc2C(F)(F)F)nc(C2CCOCC2)c1Cl` [Compound 14, 5-chloro-4-tetrahydropyran-4-yl-2-[4-(trifluoromethyl)thiazol-5-yl]-1H-pyrimidin-6-one], the IC50 at Cdc7/ASK was 1.82 nM. Take `O=c1[nH]c(-c2cn[nH]c2C(F)(F)F)nc(C2CCOCC2)c1Cl` [Compound 17, 5-chloro-4-tetrahydropyran-4-yl-2-[5-(trifluoromethyl)-1H-pyrazol-4-yl]-1H-pyrimidin-6-one]: the IC50 at Cdc7/Dbf4 is 1.45 nM; at Cdc7/ASK it was 1.2 nM. Turning to `Cc1ncsc1-c1nc(N2CCN[C@@H](C(F)(F)F)C2)c(Cl)c(=O)[nH]1` [Compound 28, 5-chloro-2-(4-methylthiazol-5-yl)-4-[(3R)-3-(trifluoromethyl)piperazin-1-yl]-1H-pyrimidin-6-one], the IC50 at Cdc7/ASK is 2.09 nM.

`C[C@@H]1COCCN1c1nc(-c2cn[nH]c2C(F)(F)F)[nH]c(=O)c1Cl` [Compound 41, 5-chloro-4-[(3R)-3-methylmorpholin-4-yl]-2-[5-(trifluoromethyl)-1H-pyrazol-4-yl]-1H-pyrimidin-6-one]: the IC50 on Cdc7/Dbf4 was 0.832 nM.

On to `C[C@@H]1CNCCN1c1nc(-c2cn[nH]c2Cl)[nH]c(=O)c1Cl` [Compound 43, 5-chloro-2-(5-chloro-1H-pyrazol-4-yl)-4-[(2R)-2-methylpiperazin-1-yl]-1H-pyrimidin-6-one], for which the IC50 on Cdc7/Dbf4 was 1.82 nM. With `C[C@@H]1CNCCN1c1nc(-c2cn[nH]c2C(F)(F)F)[nH]c(=O)c1Cl` [Compound 44, 5-chloro-4-[(2R)-2-methylpiperazin-1-yl]-2-[5-(trifluoromethyl)-1H-pyrazol-4-yl]-1H-pyrimidin-6-one], the IC50 at Cdc7/Dbf4 was 2.69 nM.
